Results reported in patent US20050059744A1, “Methods and compositions for the treatment of pain and other alpha 2 adrenergic-mediated conditions” (Allergan, Inc., priority 2003, published 2005).
Read-outs that look alike come from different tables or passages of the source.

Experiments:
[1] = test system: sulprostone-induced allodynia in mice; test: Sulprostone-induced allodynia mouse model, paint brush pain score; type: in vivo
Description: Alternatively, allodynia can be induced in mice through intrathecal treatment of the animals with 200 ng sulprostone (prostaglandin E2 receptor agonist) in 50% DMSO and in a volume of 5 μl. In this model, the pain response to stroking the flank with a paint brush is scored 8 times over a 35 minute period starting 15 minutes following spinal administration of sulprostone. Minami et al., 57 Pain 217-223 (1994).
The compounds are formulated in approximately 0.01-5% DMSO and given in a volume of 1 ml/kg body weight for systemic dosing or 5 μl in saline for intrathecal dosing. Clonidine is tested at intrathecal doses ranging between 0.01 and 10.0 μg.
Amitriptylene is dissolved in 50% DMSO at the indicated doses and injected in a volume of 5 ul intrathecally into each mouse, in conjunction with either a 30 ug/kg IP injection of 5-methylurapadil or with a similar injection of saline.
Experimental procedure is the same as in Example 1, except both clonidine (various doses) and 5-methylurapidil (1 microgram intrathecal) are coadministered by intrathecal injection in a 50% DMSO vehicle and in a total volume of 5 microliters.

[2] = test system: intraocular pressure of rabbit eyes; test: Normotensive intraocular pressure in rabbit eyes after topical instillation (pneumatonometer); type: in vivo, New Zealand rabbits
Description: Male New Zealand rabbits are used to evaluate drug effects on normotensive IOP measurements. The rabbits are carefully handled so as to minimize excitement. They should be picked up by the nape of the neck, with their hindlegs supported by the other hand. After removing the rabbit from its cage, approximately 25 ul of dilute Ophthetic® (0.05%) topical anesthesia is administered to each eye. An initial IOP determination is made in both eyes. Rabbits with 3 mmHg or greater difference in IOP between right and left eyes are replaced at this time.
Immediately following the time zero (T=0) reading in both eyes, one eye of each experimental rabbit is instilled with an ophthalmic formulation of 0.1% (w/w) brimonidine tartrate onto the cornea of the randomly selected test eye. […] The other eye is given the vehicle containing no drug. The ophthalmic formulations comprise 50 ppm Purite® (stabilized chlorine dioxide), 0.5% carboxymethylcellulose, 0.6% (w/w) borate buffer (pH 7.7) and small amounts of salts (NaCl, KCl, CaCl2, MgCl2). Intraocular pressure of both treated (ipsalateral)and untreated (contralateral) eyes is measured at the indicated time intervals for seven hours. Pressure readings utilize a Model 30 Classic™ Pneumatonometer as the measuring and recording instrument. It measures intraocular pressure (IOP) non-invasively through applanation tonometry.

male Sprague-Dawley rats = details: graded 30 minutes after administration
Description: (§1) To test sedation, six male Sprague-Dawley rats are given various doses of a clonidine intrathecal injection. Sedation is graded 30 minutes following administration of the drug by monitoring locomotor skills as follows. Rats are placed in a dark covered chamber and a digicom analyzer (Omnitech Electronic) quantitates their exploratory behavior for a five-minute period. The machine records each time the rat interrupts an array of 32 photoelectric beams in the X and Y orientation, and quantifies the difference in behavior as compared to control animals given saline instead of clonidine.

[3] = test system: Chung model of allodynic rats
From the text: A model for chronic pain (in particular peripheral neuropathy) involves the surgical ligation of the L5 (and optionally the L6) spinal nerves on one side in experimental animals. Rats recovering from the surgery gain weight and display a level of general activity similar to that of normal rats. However, these rats develop abnormalities of the foot, wherein the hindpaw is moderately everted and the toes are held together. More importantly, the hindpaw on the side affected by the surgery appears to become sensitive to pain from low-threshold mechanical stimuli, such as that producing a faint sensation of touch in a human, within about 1 week following surgery. This sensitivity to normally non-painful touch is called “tactile allodynia” and lasts for at least two months. The response includes lifting the affected hindpaw to escape from the stimulus, licking the paw and holding it in the air for many seconds. None of these responses is normally seen in the control group.
Rats are anesthetized before surgery. The surgical site is shaved and prepared either with betadine or novacaine. Incision is made from the thoracic vertebra X111 down toward the sacrum. Muscle tissue is separated from the spinal vertebra (left side) at the L4-S2 levels. The L6 vertebra is located and the transverse process is carefully removed with a small rongeur to expose the L4-L6 spinal nerves. The L5 and L6 spinal nerves are isolated and tightly ligated with 6-0 silk thread. The same procedure is done on the right side as a control, except no ligation of the spinal nerves is performed.
A complete hemostasis is confirmed, then the wounds are sutured. A small amount of antibiotic ointment is applied to the incised area, and the rat is transferred to the recovery plastic cage under a regulated heat-temperature lamp. […]
In the Chung rat model, tactile allodynia is measured prior to and 30 minutes after drug administration using von Frey hairs that are a series of fine hairs with incremental differences in stiffness. […]

sedation = test: Clonidine sedative activity dose response with or without 5-methylurapadil (FIG. 2); details: co-administration of 5-methyl urapidil 30 μg/kg intraperitoneal vs clonidine alone
Description: as §1

[4] = 0.1% brimonidine and 0.003% prazosin, FIG. 4D
[5] = 35 microliters 0.003% prazosin instilled, FIG. 4A

CN(C)CCC=C1c2ccccc2CCc2ccccc21 [Amitriptylene, amitriptylene]
reduction in the dosage necessary to achieve maximal analgesia ([1]; amitriptylene intrathecal with 30 ug/kg IP 5-methylurapadil vs with saline): approximately three

Brc1c(NC2=NCCN2)ccc2nccnc12 [brimonidine]
lowering of intraocular pressure ([2]; 0.1% brimonidine alone, after the first 30 minutes, FIG. 4B): ~30% | initial change in intraocular pressure ([2]; 0.1% brimonidine alone, within the first 30 minutes, FIG. 4B): pronounced increase | initial change in intraocular pressure [2, 4]: only a very small increase | peak IOP lowering [2, 4]: approximately 40% | difference in intraocular pressure response vs brimonidine alone ([2]; co-installation of 0.1% brimonidine and 0.001% prazosin, FIG. 4C): Little difference

Clc1cccc(Cl)c1N=C1NCCN1 [clonidine]
sedation (male Sprague-Dawley rats; intrathecal dose of 3.0 μg): mildly sedating | sedation (male Sprague-Dawley rats; intrathecal dose of 10 μg): maximal sedation | shift of the effective analgesic dose lower vs clonidine alone ([1]; 5-methyl urapidil 30 μg/kg intraperitoneal 5 minutes before clonidine): 10 fold | analgesia ([1]; clonidine 0.1 microgram intrathecal in the absence of prazosin): not analgesic | analgesic results compared with intraperitoneal injection of the alpha 1 antagonist ([1]; clonidine (various doses) and 5-methylurapidil 1 microgram coadministered intrathecally): substantially similar | decrease in the EC50 for clonidine vs i.t. clonidine alone ([1]; coadministration of prazosin 100 ng/kg intraperitoneal): four | analgesia ([1]; mice, dose-dependence statement): analgesic | analgesia ([3]; intrathecal dose of 0.1 μg, allodynic rats): no analgesia | analgesia ([3]; intrathecal dose of 1.0 μg, allodynic rats): maximal analgesia | analgesia ([3]; rats, dose-dependence statement): analgesic | sedating dose (sedation): unchanged

COc1cc2nc(N3CCN(C(=O)c4ccco4)CC3)nc(N)c2cc1OC [prazosin]
intraocular pressure compared to the untreated eye [2, 5]: small initial drop | return to baseline pressure [2, 5]: 2 h
